Data: publication PMC6386362, “Mechanism and resistance for antimycobacterial activity of a fluoroquinophenoxazine compound” (PLoS ONE, 2019)

Target: T1, Mtb topoisomerase I (MtbTopI) (Mycobacterium tuberculosis, UniProt P9WG49)
T1 construct: gene topA
Assay type: biochemical

T1 sequence (P9WG49 whole entry): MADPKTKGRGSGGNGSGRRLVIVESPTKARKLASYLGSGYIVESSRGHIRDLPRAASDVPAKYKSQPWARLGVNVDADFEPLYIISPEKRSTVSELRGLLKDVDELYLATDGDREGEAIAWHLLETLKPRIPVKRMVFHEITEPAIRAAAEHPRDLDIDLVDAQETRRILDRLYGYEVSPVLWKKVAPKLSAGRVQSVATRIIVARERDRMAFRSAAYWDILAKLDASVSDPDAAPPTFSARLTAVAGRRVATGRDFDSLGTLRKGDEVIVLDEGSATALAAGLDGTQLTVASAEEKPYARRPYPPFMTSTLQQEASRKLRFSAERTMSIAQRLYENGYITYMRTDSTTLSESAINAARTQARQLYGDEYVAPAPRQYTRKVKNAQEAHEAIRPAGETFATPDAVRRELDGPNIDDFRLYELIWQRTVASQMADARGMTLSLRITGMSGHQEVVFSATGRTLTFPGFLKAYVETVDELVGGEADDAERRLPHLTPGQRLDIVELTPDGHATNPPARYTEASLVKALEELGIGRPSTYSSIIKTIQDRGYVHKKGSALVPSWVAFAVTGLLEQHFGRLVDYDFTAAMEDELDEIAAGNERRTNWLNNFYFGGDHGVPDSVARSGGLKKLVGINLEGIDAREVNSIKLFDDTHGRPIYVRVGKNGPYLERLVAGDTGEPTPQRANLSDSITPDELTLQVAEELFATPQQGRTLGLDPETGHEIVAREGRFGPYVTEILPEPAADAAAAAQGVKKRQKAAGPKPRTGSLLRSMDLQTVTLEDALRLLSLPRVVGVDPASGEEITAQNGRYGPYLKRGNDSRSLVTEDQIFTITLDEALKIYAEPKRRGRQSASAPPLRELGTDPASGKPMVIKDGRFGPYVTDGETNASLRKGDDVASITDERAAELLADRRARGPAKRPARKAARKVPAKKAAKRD

Nc1ccc2c(c1)Oc1c(N3CCC(N4CCCCC4)CC3)c(F)cc3c(=O)c(C(=O)O)cn-2c13 [FP-11g] showed an IC50 of 240 ± 40 nM.
